Reference: publication PMC6454709, “Application of WST-8 based colorimetric NAD(P)H detection for quantitative dehydrogenase assays” (BMC Biochemistry, 2019)
Like-named read-outs stand apart in the source and are kept apart here.

Tested on: T1, Bacillus GDH
T1 construct: commercial enzyme from GDH activity colorimetric assay kit (Biovision)
Assay: WST-8/1-mPMS formazan assay, […] nm, Michaelis-Menten fit
Type: biochemical
Conditions: 20 mM Tris-HCl pH 9.0, 37 °C

Km (1 mM NAD+, read-out: KM (mM) / Glucose) | Km (250 mM glucose, read-out: KM (mM) / NAD^+) | Compound
17.1 ± 2 mM | – | OC[C@H]1OC(O)[C@H](O)[C@@H](O)[C@@H]1O (stereo partly drawn) [D-(+)-glucose]
– | 0.271 ± 0.027 mM | NC(=O)c1ccc[n+]([C@@H]2O[C@H](COP(=O)(O)OP(=O)(O)OC[C@H]3O[C@@H](n4cnc5c(N)ncnc54)[C@H](O)[C@@H]3O)[C@@H](O)[C@H]2O)c1 [NAD^+]
